According to patent US11613552B2, “Pharmaceutical agents, compositions, and methods relating thereto” (Alltech, Inc., priority 2017, dated 2023):

Columns and labels:
STZ-induced T1D mice = experiment: Blood glucose in STZ-induced type 1 diabetic mice after acute treatment; assay type: in vivo, mouse; details: 5.4 mg/kg ip, fasted
Experimental: Five-week-old C57/BL6 male mice were intraperitoneally injected with streptozotocin (STZ, 55 mg/kg mouse body weigh) daily for 5 days, and then housed in the vivarium for another 14 days for recovery. Blood glucose levels of these mice were measured using a glucometer. Those animals with a blood glucose level higher than 500 mg/dL were considered to be type I diabetic (T1D). These T1D mice with unfasted blood glucose levels between 500-550 mg/dL were fasted overnight and injected intraperitoneally with Compound #43 at a dose of 5.4 mg/kg body weight or physiological saline containing 2% DMSO (Compound #43 stock solvent). At 1, 2 and 3 hours post-injection, blood glucose levels in these mice were measured using the glucometer.

[1] = tested on: differentiated C2C12 cells; experiment: Glucose uptake in differentiated C2C12 (skeletal muscle) cells; assay type: cell-based, mouse
Experimental: The mouse myoblast C2C12 cells were purchased from the American Type Culture Collection (ATCC, Manassas, Va.). These cells were amplified in DMEM media supplemented with 10% FBS. Equal number of C2C12 cells were then seeded on 96-well plates (5000 cells/well) and cultured in 10% FBS DMEM media at 37° C. for 5 days. Cells were replenished daily with fresh 10% FBS DMEM media. At day 5 of culture, C2C12 cells were differentiated using 0.5% horse serum (Sigma)-containing DMEM media (differentiation media) continuing for 7 days with daily replacement of fresh differentiation media, as previously described (Misu et al, Cell Metabolism 12, 483-495, 2010). At day 7 post-differentiation, differentiated C2C12 cells were rinsed with PBS twice and pretreated without or with 0.006% DMSO (Compound #43 solvent) or Compound #43 (300 or 600 ppb) in serum-free glucose-free DMEM media overnight. Then these cells were washed once with PBS, and then treated without (basal) or with insulin (200 nM), Compound #43 (300 and 600 ppb), or both insulin and Compound #43 in glucose/phenol red-free DMEM media at 37° C. for 1.5 hr. After treatment, media was removed and cells were washed once with PBS and incubated with 1 mM 2-deoxyglucose (2DG) at room temperature for 30 min. […] Luminescent signals were recorded using a Bio-Tek luminometer.

H4IIE cells = experiment: Glucose production assay in H4IIE cells; assay type: cell-based, rat
Experimental: Equal numbers of Human HepG2 or rat H4IIE cells (1-1.5×10^5 cells/well) were seeded on 96 well plates in 10% FBS-containing media for 24 hr. Cells were then washed twice with PBS, and treated with various concentrations of compounds, metformin or insulin in 100 μl of glucose production media (glucose-free, phenol red-free DMEM media supplemented with 20 mM sodium lactate, 2 mM sodium pyruvate and 5 mM HEPES) at 37° C. for 24 hr (H4IIE cells only) or 48 hr (HepG2 cell only). Cells were also incubated with 0.24% DMSO (the maximal volume of DMSO solvent used in the experiments).
After the above treatments, 50 μl of culture media were collected, and subjected to glucose analysis using Molecular Probes Amplex Red glucose assay kit (Cat #A22189) according to the manufacturer's protocol. Cell numbers or viability in the culture plate after the above compound treatments were determined using Promega's CellTiter96® AQueous One Solution Cell Proliferation Assay kits, according to the manufacturer's protocol and instructions. In brief, after removing 50 μl of culture media for glucose assay, cells were incubated with AQueous One solution (25 μl stock solution and 50 μl prewarmed PBS/per well) at 37° C. for 1 hour, and the absorbance of OD490 nm in each sample was determined by the Bio-Tek microplate reader. Cell viability in culture wells were determined by the subtraction of OD490 nm in cultured cells with the OD490 nm in plain culture media (without seeding of cells). Glucose production in the culture cells were obtained by normalizing the glucose concentration in culture media by cell viability in each well. At least 3 samples per each treatment were examined for the above analysis. Data are presented as Mean±SEM of those samples. Experiments were repeated at least twice.
The half maximal inhibitory concentration (IC50 values) of Compound #43 or metformin for the inhibition of glucose production were determined using the ED50 Plus v1.0 online software.

For C[Se]C[C@H]1O[C@@H](n2cnc3c(N)ncnc32)C(OC(C)=O)C1OC(C)=O (stereo partly shown) [Compound #43, Adenosine, 5′-Se-methyl-5′-selino-, 2′,3′-diacetate], the blood glucose levels (STZ-induced T1D mice; 2 and 3 hours (FIG. 28)) was “significant decrease in blood glucose levels”, the blood glucose levels (STZ-induced T1D mice; 1 hour (FIG. 28)) was “trend of decreased blood glucose levels” and the “increase in glucose uptake” value ([1]; co-treatment insulin 200 nM and Compound #43 300 ppb) was 63%. For the same compound, the “increase of glucose uptake” value ([1]; co-treatment insulin 200 nM and Compound #43 600 ppb) was 79%, the IC50 (H4IIE cells; Rattus norvegicus, H4IIE, 24 h, read-out: IC50 (inhibition of glucose production)) was 17.8 µM and the “potency relative to metformin in inhibition of glucose production” value (H4IIE cells; cultured rat liver cells) was “at least 15 times”. The “effect on glucose production in H4IIE cells” value (H4IIE cells; serum-free, 24 hr (FIG. 2)) was “dose-dependent decrease in glucose production”.
